Test results: patent US20250248973A1, “CANNABINOID RECEPTOR 1 ANTAGONISTS/INVERSE AGONISTS AND USES THEREOF” (Corbus Pharmaceuticals, Inc., priority 2022, published 2025)

Legend:
[1] = target: Human CB1 Receptor-1 (hCB1) (Homo sapiens (Human), UniProt P21554); experiment: hCB1 Gai cyclic AMP (cAMP) TR-FRET assay, antagonism of EC80 CP55940 with forskolin; assay type: cell-based; conditions: hCB1 cells, 30 min pre-incubation
Method: (§1) Example 3. Biochemical Methods Human CB1 Receptor-1 (hCB1) and Human CB1 Receptor-1b (hCBib)
(§2) hCB1/hCB1 b Gai Cyclic AMP (cAMP) Assays: Cells were seeded in a 384-well plate at an appropriate density from frozen cells. The cAMP assays were performed according to the manufacturer's protocol using MULTISCREEN™ TR-FRET cAMP 1.0 No Wash Assay Kit. Cells (hCB1 or hCB1 b) were pre-incubated with customer compounds for 30 minutes at rt followed by addition of EC80 CP55940 concentration and Forskolin. Cells were then incubated for 20 minutes at 37C. The reaction was terminated by sequentially adding sequentially adding MULTISCREEN™ Eu-labeled cAMP and MULTISCREEN™ 650-labeled anti-cAMP antibody in lysis buffer. The plate was then incubated at rt for 30 minutes before reading fluorescent emissions at 620 nm and 665 with excitation at 314 nm on FlexStation III (Molecular Devices). The results are shown in Table 2 (“***” denotes an IC50<100 nM; “**” denotes an IC50 between 100 nM and 500 nM, and “*” denotes an IC50>500 nM).

[2] = target: Human CB1 Receptor-1b (hCB1b) (Homo sapiens (Human), UniProt P21554); experiment: hCB1b Gai cyclic AMP (cAMP) TR-FRET assay, antagonism of EC80 CP55940 with forskolin; assay type: cell-based; conditions: hCB1b cells, 30 min pre-incubation, read-out: CB1b IC50
Human CB1 Receptor-1b (hCB1b), sequence (P21554 other isoform, or with tags, fused parts or gaps): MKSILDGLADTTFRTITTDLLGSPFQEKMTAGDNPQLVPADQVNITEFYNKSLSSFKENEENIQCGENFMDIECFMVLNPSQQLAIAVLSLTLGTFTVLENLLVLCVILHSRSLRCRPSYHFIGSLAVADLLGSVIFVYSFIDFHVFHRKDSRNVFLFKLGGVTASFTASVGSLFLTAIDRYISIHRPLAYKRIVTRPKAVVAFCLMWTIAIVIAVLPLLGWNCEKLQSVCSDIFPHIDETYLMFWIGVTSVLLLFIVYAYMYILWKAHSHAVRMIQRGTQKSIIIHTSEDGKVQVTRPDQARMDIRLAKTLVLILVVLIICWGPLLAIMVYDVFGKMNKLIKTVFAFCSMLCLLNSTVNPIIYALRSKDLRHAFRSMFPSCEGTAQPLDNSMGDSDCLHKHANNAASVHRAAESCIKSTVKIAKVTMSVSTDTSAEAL
Method: as §1, §2

Human CB1 Receptor-1 (hCB1), sequence (P21554 whole entry): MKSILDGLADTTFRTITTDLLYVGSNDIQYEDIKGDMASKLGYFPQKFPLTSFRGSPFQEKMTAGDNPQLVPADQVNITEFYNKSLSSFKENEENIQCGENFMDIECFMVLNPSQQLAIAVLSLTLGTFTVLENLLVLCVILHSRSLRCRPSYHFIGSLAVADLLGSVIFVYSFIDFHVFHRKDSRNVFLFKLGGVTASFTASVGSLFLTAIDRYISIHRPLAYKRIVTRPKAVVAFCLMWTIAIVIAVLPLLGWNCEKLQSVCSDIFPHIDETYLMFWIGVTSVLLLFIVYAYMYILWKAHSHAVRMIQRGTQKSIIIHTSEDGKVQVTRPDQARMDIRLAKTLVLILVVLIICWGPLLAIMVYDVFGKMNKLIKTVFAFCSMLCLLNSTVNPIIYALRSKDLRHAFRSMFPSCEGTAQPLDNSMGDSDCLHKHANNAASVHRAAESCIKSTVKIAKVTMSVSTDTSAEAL

Row | SMILES | IC50 [1] [nM] | IC50 [2] [nM]
1 | NS(=O)(=O)[C@H]1CC[C@H](N/C(=N/S(=O)(=O)c2ccc(Cl)cc2)N2C[C@@H](c3ccccc3)C(c3ccc(Cl)cc3)=N2)CC1 (single isomer, unassigned) [Compound 122] | 100 to 500 | 100 to 500
2 | C[C@H](CS(N)(=O)=O)N/C(=N\S(=O)(=O)c1ccc(Cl)cc1)N1CC(c2ccccc2)C(c2ccc(Cl)cc2)=N1 (stereo in doubt) [Compound 3, (R,E)-3-(4-chlorophenyl)-N′-((4-chlorophenyl)sulfonyl)-4-phenyl-N-((R)-1-sulfamoylpropan-2-yl)-4,5-dihydro-1H-pyrazole-1-carboximidamide] | > 500 | 100 to 500
3 | NS(=O)(=O)[C@H]1CC[C@@H](N/C(=N/S(=O)(=O)c2ccc(Cl)cc2)N2C[C@H](c3ccccc3)C(c3ccc(Cl)cc3)=N2)C1 (single isomer, unassigned) [Compound 145] | 100 to 500 | 100 to 500
4 | C[C@@H](CS(N)(=O)=O)N/C(=N\S(=O)(=O)c1ccc(Cl)cc1)N1CC(c2ccccc2)C(c2ccc(Cl)cc2)=N1 (stereo in doubt) [Compound 1, (R,E)-3-(4-chlorophenyl)-N′-((4-chlorophenyl)sulfonyl)-4-phenyl-N-((S)-1-sulfamoylpropan-2-yl)-4,5-dihydro-1H-pyrazole-1-carboximidamide] | < 100 | < 100
5 | CN(CCNC(=NS(=O)(=O)c1ccc(Cl)cc1)N1C[C@H](c2ccccc2)C(c2ccc(Cl)cc2)=N1)S(N)(=O)=O [Compound 187, (S,E)-3-(4-chlorophenyl)-N′-((4-chlorophenyl)sulfonyl)-N-(2-(methyl(sulfamoyl)amino)ethyl)-4-phenyl-4,5-dihydro-1H-pyrazole-1-carboximidamide] | 100 to 500 | 100 to 500
6 | C[C@@H](CN/C(=N\S(=O)(=O)c1ccc(C(F)(F)F)cc1)N1C[C@H](c2ccccc2)C(c2ccc(Cl)cc2)=N1)S(N)(=O)=O [Compound 18, (S,E)-3-(4-chlorophenyl)-4-phenyl-N-((S)-2-sulfamoylpropyl)-N′-((4-(trifluoromethyl)phenyl)sulfonyl)-4,5-dihydro-1H-pyrazole-1-carboximidamide] | < 100 | 100 to 500
7 | NS(=O)(=O)[C@H]1CC[C@@H](N/C(=N/S(=O)(=O)c2ccc(Cl)cc2)N2C[C@H](c3ccccc3)C(c3ccc(F)cc3)=N2)CC1 (single isomer, unassigned) [Compound 123] | > 500 | > 500
8 | CN(C)S(=O)(=O)CCN/C(=N\S(=O)(=O)c1ccc(Cl)cc1)N1C[C@H](c2ccccc2)C(c2ccc(Cl)cc2)=N1 [Compound 155, (S,E)-3-(4-chlorophenyl)-N′-((4-chlorophenyl)sulfonyl)-N-(2-(N,N-dimethylsulfamoyl)ethyl)-4-phenyl-4,5-dihydro-1H-pyrazole-1-carboximidamide] | < 100 | < 100
9 | C[C@H](CN/C(=N\S(=O)(=O)c1ccc(F)cc1)N1C[C@H](c2ccccc2)C(c2ccc(F)cc2)=N1)S(N)(=O)=O [Compound 53, (S,E)-3-(4-fluorophenyl)-N′-((4-fluorophenyl)sulfonyl)-4-phenyl-N-((R)-2-sulfamoylpropyl)-4,5-dihydro-1H-pyrazole-1-carboximidamide] | < 100 | < 100
10 | Cn1cnc(S(=O)(=O)N=C(NCCS(N)(=O)=O)N2C[C@H](c3ccccc3)C(c3ccc(Cl)cc3)=N2)c1 [Compound 67, (S)-3-(4-chlorophenyl)-N′-((1-methyl-1H-imidazol-4-yl)sulfonyl)-4-phenyl-N-(2-sulfamoylethyl)-4,5-dihydro-1H-pyrazole-1-carboximidamide] | > 500 | > 500
11 | NS(=O)(=O)O[C@H]1C[C@@H](N/C(=N\S(=O)(=O)c2ccc(Cl)cc2)N2C[C@@H](c3ccccc3)C(c3ccc(Cl)cc3)=N2)C1 (single isomer, unassigned) [Compound 226] | > 500 | < 100
